Where two headings read alike, the source gives them in different places.
Experiments:
[1] = molecular target: T1, ERK1/2 kinase; assay: ERK1/2 kinase (Carna) inhibitory activity, Caliper mobility shift; format: biochemical; conditions: read-out: ERK½ IC50
T1 construct: fused on or other part: Carna's ERK products carry a GST tag by vendor knowledge
Procedure: (1) Preparation of 1×Kinase buffer; (2) preparation of compound concentration gradient: the initial test concentration of the tested compound was 10 μM, which was 3-fold diluted to 10 concentrations, and a duplicate test was conducted, and then the tested compound was diluted in a 96 well plate to a 100-fold final concentration of 10 different concentrations of solution. […] Log (inhibitor) vs. response—Variable slope of the analysis software GraphPad Prism 5 was used to fit the dose-effect curve to obtain the IC50 value of each compound on the enzyme activity.
2. […] (A<10 nM, 10 nM≤B<200 nM, C≥200 nM)

[2] = tested on: Colo-205 cells; assay: Colo-205 tumor cell proliferation, CCK-8, 72 hours; format: cell-based; conditions: for IC50: Homo sapiens, COLO 205, 72 hours, CCK-8, read-out: Colo-205 IC50
Procedure: 1. Test method: Colo-205 cells (ATCC) in logarithmic growth phase were inoculated into a 96-well culture plate at an appropriate density with 90 μL per well. After overnight culture, different concentrations of the compound were added and acted for 72 hours, and a solvent control group (negative control) was set. After the compound was acted on cells for 72 hours, the effect of the compound on cell proliferation was detected by the cell counting kit CCK-8 (Dojindo), and 10 μL of CCK-8 reagent was added to each well. After the plate was placed in a 37° C. incubator for 2 to 4 hours, a full-wavelength microplate reader SpectraMax 190 was adopted for obtaining the readings with a measured wavelength of 450 nm. […] The IC50 value was obtained by four-parameter regression with the software attached to the microplate reader.

| SMILES | IC50 ([1]; class symbols) [nM] | IC50 ([2]; class symbols) [nM] | cell proliferation inhibitory activity (in words) ([2]; Colo-205) | IC50 ([1]; numeric values) [nM] | IC50 ([2]; numeric values) [nM] |
| --- | --- | --- | --- | --- | --- |
| Cc1cccc([C@@H](CO)NC(=O)[C@@H](C)N2Cc3ccc(-c4cc(NC5CCOCC5)ncn4)c(F)c3C2=O)c1 [Embodiment 6] | < 10 | < 100 | – | – | – |
| Cc1cccc([C@@H](CO)NC(=O)[C@@H](C)N2Cc3ccc(-c4cc(NC5CCOCC5)ncn4)nc3C2=O)c1 [Embodiment 7] | 10 to 200 | 100 to 1000 | – | – | – |
| Cc1cccc([C@@H](CO)NC(=O)[C@@H](C)N2Cc3ccc(-c4ccnc(NC5CC(F)(F)C5)c4)c(F)c3C2=O)c1 [Embodiment 8] | < 10 | < 100 | strong cell proliferation inhibitory activity | – | – |
| Cc1cccc([C@@H](CO)NC(=O)[C@@H](C)N2Cc3ccc(-c4nc(Nc5ccnn5C)ncc4Cl)nc3C2=O)c1 [Embodiment 9] | < 10 | 100 to 1000 | – | – | – |
| Cc1cccc([C@@H](CO)NC(=O)[C@@H](C)N2Cc3ccc(-c4nc(NC5CC(F)(F)C5)ncc4Cl)nc3C2=O)c1 [Embodiment 10] | – | 100 to 1000 | – | 13 | – |
| Cc1cccc([C@@H](CO)NC(=O)[C@@H](C)N2Cc3ccc(-c4nc(N[C@H]5CCOC5)ncc4Cl)nc3C2=O)c1 [Embodiment 11] | – | 100 to 1000 | – | 8.3 | – |
| Cc1cccc([C@@H](CO)NC(=O)[C@@H](C)N2Cc3ccc(-c4nc(Nc5ccc(F)c(N6CCOCC6)c5)ncc4Cl)nc3C2=O)c1 [Embodiment 12] | – | 100 to 1000 | – | 12 | – |
| Cc1cccc([C@@H](CO)NC(=O)[C@@H](C)N2Cc3ccc(-c4cc(NC5CCOCC5)ncc4Cl)nc3C2=O)c1 [Embodiment 13] | 10 to 200 | 100 to 1000 | – | – | – |
| Cc1cccc([C@@H](CO)NC(=O)[C@@H](C)N2Cc3ccc(-c4cc(NC5CCOCC5)ncc4C)nc3C2=O)c1 [Embodiment 14] | 10 to 200 | 100 to 1000 | – | – | – |
| Cc1cccc([C@@H](CO)NC(=O)[C@@H](C)N2Cc3ccc(-c4cc(Nc5ccnn5C)ncc4F)nc3C2=O)c1 [Embodiment 15] | 10 to 200 | 100 to 1000 | – | – | – |
| Cc1cccc([C@@H](CO)NC(=O)[C@@H](C)N2Cc3ccc(-c4ccnc(Nc5ccnn5C)n4)nc3C2=O)c1 [Embodiment 16] | < 10 | < 100 | – | – | – |
| Cc1cccc([C@@H](CO)NC(=O)[C@@H](C)N2Cc3ccc(-c4nc(NC5COC5)ncc4Cl)nc3C2=O)c1 [Embodiment 17] | – | 100 to 1000 | – | 5.2 | – |
| C[C@H](C(=O)N[C@H](CO)c1ccc(F)c(Cl)c1)N1Cc2ccc(-c3nc(NC4CCOCC4)ncc3Cl)nc2C1=O [Embodiment 19] | – | – | – | 4.8 | 202 |

From patent US20230312564A1, “AROMATIC RING-LACTAM COMPOUND, PREPARATION METHOD THEREFOR AND USE THEREOF” (SHANGHAI RINGENE BIOPHARMA CO., LTD., priority 2020, published 2023)
